From PubChem BioAssay (NCI)
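Growth conditions: 96-well plates. Treatment: test compound, 48 hours, 5 concentrations. Analysis: linear interpolation between bracketing concentrations; unreached endpoints set to highest concentration. GI50 marks 50% less growth. TGI marks complete inhibition of growth.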

Assays:
Experiment in all cases: NCI anticancer screen, dose series, 48 h
K-562 leukemia = system: K-562 leukemia
BT-549 breast = system: BT-549 breast
SK-MEL-5 melanoma = system: SK-MEL-5 melanoma
MDA-MB-435 = system: MDA-MB-435
KM12 colon = system: KM12 colon
HCT-15 colon = system: HCT-15 colon
HOP-62 NSCLC = system: HOP-62 NSCLC
MOLT-4 leukemia = system: MOLT-4 leukemia
786-0 renal = system: 786-0 renal
HL-60(TB) leukemia = system: HL-60(TB) leukemia
OVCAR-8 ovarian = system: OVCAR-8 ovarian
NCI-H23 lung = system: NCI-H23 lung
IGROV1 ovarian = system: IGROV1 ovarian
MDA-MB-231 breast = system: MDA-MB-231 breast
TK-10 renal = system: TK-10 renal
PC-3 prostate = system: PC-3 prostate
SN12C renal = system: SN12C renal
SF-268 CNS = system: SF-268 CNS
SW-620 colon = system: SW-620 colon
OVCAR-4 ovarian = system: OVCAR-4 ovarian
DU-145 prostate = system: DU-145 prostate
COLO 205 colon = system: COLO 205 colon
OVCAR-3 ovarian = system: OVCAR-3 ovarian
T-47D breast = system: T-47D breast
SK-MEL-2 melanoma = system: SK-MEL-2 melanoma
NCI/ADR-RES ovarian = system: NCI/ADR-RES ovarian
CAKI-1 renal = system: CAKI-1 renal
HCT-116 colon = system: HCT-116 colon
SK-OV-3 ovarian = system: SK-OV-3 ovarian
U251 CNS = system: U251 CNS
HT29 colon = system: HT29 colon
HCC-2998 colon = system: HCC-2998 colon
MCF7 breast = system: MCF7 breast
NCI-H460 lung = system: NCI-H460 lung
LOX IMVI melanoma = system: LOX IMVI melanoma
UACC-62 melanoma = system: UACC-62 melanoma
OVCAR-5 ovarian = system: OVCAR-5 ovarian
SF-539 CNS = system: SF-539 CNS
EKVX NSCLC = system: EKVX NSCLC
ACHN renal = system: ACHN renal
RPMI-8226 leukemia = system: RPMI-8226 leukemia
UO-31 renal = system: UO-31 renal
HOP-92 NSCLC = system: HOP-92 NSCLC
SF-295 CNS = system: SF-295 CNS
SNB-19 CNS = system: SNB-19 CNS
A549 NSCLC = system: A549 NSCLC
MDA-MB-468 breast = system: MDA-MB-468 breast
CCRF-CEM leukemia = system: CCRF-CEM leukemia
SK-MEL-28 melanoma = system: SK-MEL-28 melanoma
A498 renal = system: A498 renal
NCI-H522 lung = system: NCI-H522 lung
NCI-H226 lung = system: NCI-H226 lung
SR leukemia = system: SR leukemia
RXF 393 renal = system: RXF 393 renal
UACC-257 melanoma = system: UACC-257 melanoma
HS 578T breast = system: HS 578T breast
M14 melanoma = system: M14 melanoma
MALME-3M melanoma = system: MALME-3M melanoma

`O=S(=O)(Nc1cccc(-n2cnc3cc(-c4ccc(O)cc4)ccc32)c1)C1CC1` showed a GI50 (K-562 leukemia) of 0.546 µM, a TGI (K-562 leukemia) greater than 100 µM and a GI50 (BT-549 breast) of 2.59 µM. The TGI (BT-549 breast) was 12.5 µM, the GI50 (SK-MEL-5 melanoma) was 3.13 µM and the TGI (SK-MEL-5 melanoma) was 14.1 µM. It also gave a GI50 (MDA-MB-435) of 0.311 µM, a TGI (MDA-MB-435) of 1.33 µM and a GI50 (KM12 colon) of 0.654 µM. The TGI (KM12 colon) was 13.2 µM, the GI50 (HCT-15 colon) was 1.62 µM and the TGI (HCT-15 colon) was 14.1 µM. It also gave a GI50 (HOP-62 NSCLC) of 4.63 µM, a TGI (HOP-62 NSCLC) of 19.4 µM and a GI50 (MOLT-4 leukemia) of 2.01 µM. The TGI (MOLT-4 leukemia) was 14.1 µM, the GI50 (786-0 renal) was 4.7 µM and the TGI (786-0 renal) was 16.9 µM. It also gave a GI50 (HL-60(TB) leukemia) of 1.38 µM, a TGI (HL-60(TB) leukemia) of 5.63 µM and a GI50 (OVCAR-8 ovarian) of 3.23 µM. The TGI (OVCAR-8 ovarian) was 14.5 µM, the GI50 (NCI-H23 lung) was 5.04 µM and the TGI (NCI-H23 lung) was 20.6 µM. It also gave a GI50 (IGROV1 ovarian) of 4.58 µM, a TGI (IGROV1 ovarian) of 17.7 µM and a GI50 (MDA-MB-231 breast) of 3.4 µM. It also gave a TGI (MDA-MB-231 breast) of 20.8 µM, a GI50 (TK-10 renal) of 8.98 µM and a TGI (TK-10 renal) of 20.9 µM. The GI50 (PC-3 prostate) was 3.2 µM, the TGI (PC-3 prostate) was 17 µM and the GI50 (SN12C renal) was 3.7 µM. It also gave a TGI (SN12C renal) of 15.1 µM, a GI50 (SF-268 CNS) of 3.79 µM and a TGI (SF-268 CNS) of 17.2 µM. It also gave a GI50 (SW-620 colon) of 1.5 µM, a TGI (SW-620 colon) of 17.4 µM and a GI50 (OVCAR-4 ovarian) of 4.03 µM. It also gave a TGI (OVCAR-4 ovarian) of 17.3 µM, a GI50 (DU-145 prostate) of 4.19 µM and a TGI (DU-145 prostate) of 15 µM. The GI50 (COLO 205 colon) was 3.17 µM, the TGI (COLO 205 colon) was 11.1 µM and the GI50 (OVCAR-3 ovarian) was 2.14 µM. The TGI (OVCAR-3 ovarian) was 10.3 µM, the GI50 (T-47D breast) was 2.73 µM and the TGI (T-47D breast) was 14.5 µM. For the same compound, the GI50 (SK-MEL-2 melanoma) was 2.87 µM, the TGI (SK-MEL-2 melanoma) was 14.5 µM and the GI50 (NCI/ADR-RES ovarian) was 3.52 µM. For the same compound, the TGI (NCI/ADR-RES ovarian) was 36.5 µM, the GI50 (CAKI-1 renal) was 3.25 µM and the TGI (CAKI-1 renal) was 14.6 µM. The GI50 (HCT-116 colon) was 2.82 µM, the TGI (HCT-116 colon) was 15.3 µM and the GI50 (SK-OV-3 ovarian) was 3.84 µM. The TGI (SK-OV-3 ovarian) was 13.4 µM, the GI50 (U251 CNS) was 2.65 µM and the TGI (U251 CNS) was 13.8 µM. For the same compound, the GI50 (HT29 colon) was 2.6 µM, the TGI (HT29 colon) was 8.59 µM and the GI50 (HCC-2998 colon) was 4.4 µM. It also gave a TGI (HCC-2998 colon) of 19.6 µM, a GI50 (MCF7 breast) of 1.96 µM and a TGI (MCF7 breast) of 16.8 µM. It also gave a GI50 (NCI-H460 lung) of 3.03 µM, a TGI (NCI-H460 lung) of 13 µM and a GI50 (LOX IMVI melanoma) of 3.14 µM. For the same compound, the TGI (LOX IMVI melanoma) was 14.7 µM, the GI50 (UACC-62 melanoma) was 1.62 µM and the TGI (UACC-62 melanoma) was 14.3 µM. It also gave a GI50 (OVCAR-5 ovarian) of 6.77 µM, a TGI (OVCAR-5 ovarian) of 20.6 µM and a GI50 (SF-539 CNS) of 1.53 µM. It also gave a TGI (SF-539 CNS) of 6.1 µM, a GI50 (EKVX NSCLC) of 6.56 µM and a TGI (EKVX NSCLC) of 21.6 µM. For the same compound, the GI50 (ACHN renal) was 4.86 µM, the TGI (ACHN renal) was 16.8 µM and the GI50 (RPMI-8226 leukemia) was 2.83 µM. The TGI (RPMI-8226 leukemia) was 9.46 µM, the GI50 (UO-31 renal) was 2.19 µM and the TGI (UO-31 renal) was 13.9 µM. The GI50 (HOP-92 NSCLC) was 1.43 µM, the TGI (HOP-92 NSCLC) was 8.43 µM and the GI50 (SF-295 CNS) was 2.36 µM. For the same compound, the TGI (SF-295 CNS) was 11.4 µM, the GI50 (SNB-19 CNS) was 5.95 µM and the TGI (SNB-19 CNS) was 19.8 µM. The GI50 (A549 NSCLC) was 4.04 µM, the TGI (A549 NSCLC) was 17.1 µM and the GI50 (MDA-MB-468 breast) was 1.44 µM. The TGI (MDA-MB-468 breast) was 6.58 µM, the GI50 (CCRF-CEM leukemia) was 2.62 µM and the TGI (CCRF-CEM leukemia) was 14.5 µM. For the same compound, the GI50 (SK-MEL-28 melanoma) was 6.68 µM, the TGI (SK-MEL-28 melanoma) was 20 µM and the GI50 (A498 renal) was 3.31 µM. The TGI (A498 renal) was 10.4 µM, the GI50 (NCI-H522 lung) was 0.82 µM and the TGI (NCI-H522 lung) was 3.66 µM. For the same compound, the GI50 (NCI-H226 lung) was 6.23 µM, the TGI (NCI-H226 lung) was 27.8 µM and the GI50 (SR leukemia) was 0.391 µM. For the same compound, the TGI (SR leukemia) was 65.5 µM, the GI50 (RXF 393 renal) was 2.19 µM and the TGI (RXF 393 renal) was 7.7 µM. It also gave a GI50 (UACC-257 melanoma) of 10.2 µM, a TGI (UACC-257 melanoma) of 22 µM and a GI50 (HS 578T breast) of 1.93 µM. For the same compound, the TGI (HS 578T breast) was 7.42 µM, the GI50 (M14 melanoma) was 2.36 µM and the TGI (M14 melanoma) was 17.6 µM. The GI50 (MALME-3M melanoma) was 3.54 µM and the TGI (MALME-3M melanoma) was 18.4 µM.
